Assay results published in ChEMBL document CHEMBL3044672, “N9- and N7-(Chloromethyl Phenymethyl)Chloropurine Derivatives from , '-Dichloroxylenes: Synthesis and Anticancer Activity” (2005).

Assays:
Type in all cases: functional
SF-539 = assay: Cytotoxicity against Homo sapiens (human) SF539 cells after 48 hr by sulforhodamine B assay; conditions: SF-539, 48 h
RXF 393 = assay: Cytotoxicity against Homo sapiens (human) RXF393 cells after 48 hr by sulforhodamine B assay; conditions: RXF 393, 48 h
SK-MEL-5 = assay: Cytotoxicity against Homo sapiens (human) SK-MEL-5 cells after 48 hr by sulforhodamine B assay; conditions: SK-MEL-5, 48 h
DU-145 = assay: Cytotoxicity against Homo sapiens (human) DU145 cells after 48 hr by sulforhodamine B assay; conditions: DU-145, 48 h
MOLT-4 = assay: Cytotoxicity against Homo sapiens (human) MOLT4 cells after 48 hr by sulforhodamine B assay; conditions: MOLT-4, 48 h
MDA-MB-231 = assay: Cytotoxicity against Homo sapiens (human) MDA-MB-231 cells after 48 hr by sulforhodamine B assay; conditions: MDA-MB-231, 48 h
OVCAR-4 = assay: Cytotoxicity against Homo sapiens (human) OVCAR4 cells after 48 hr by sulforhodamine B assay; conditions: OVCAR-4, 48 h
UO-31 = assay: Cytotoxicity against Homo sapiens (human) UO31 cells after 48 hr by sulforhodamine B assay; conditions: UO-31, 48 h
SW-620 = assay: Cytotoxicity against Homo sapiens (human) SW620 cells after 48 hr by sulforhodamine B assay; conditions: SW-620, 48 h
A549 = assay: Cytotoxicity against Homo sapiens (human) A549 cells after 48 hr by sulforhodamine B assay; conditions: A549, 48 h
HCT-116 = assay: Cytotoxicity against Homo sapiens (human) HCT116 cells after 48 hr by sulforhodamine B assay; conditions: HCT-116, 48 h
A498 = assay: Cytotoxicity against Homo sapiens (human) A498 cells after 48 hr by sulforhodamine B assay; conditions: A498, 48 h
ACHN = assay: Cytotoxicity against Homo sapiens (human) ACHN cells after 48 hr by sulforhodamine B assay
KM12 = assay: Cytotoxicity against Homo sapiens (human) KM12 cells after 48 hr by sulforhodamine B assay; conditions: KM12, 48 h
SF-295 = assay: Cytotoxicity against Homo sapiens (human) SF295 cells after 48 hr by sulforhodamine B assay; conditions: SF-295, 48 h
OVCAR-3 = assay: Cytotoxicity against Homo sapiens (human) OVCAR3 cells after 48 hr by sulforhodamine B assay; conditions: OVCAR-3, 48 h
LOX IMVI = assay: Cytotoxicity against Homo sapiens (human) LOXIMVI cells after 48 hr by sulforhodamine B assay
786-0 = assay: Cytotoxicity against Homo sapiens (human) 786-0 cells after 48 hr by sulforhodamine B assay; conditions: 786-0, 48 h
RPMI-8226 = assay: Cytotoxicity against Homo sapiens (human) RPMI8226 cells after 48 hr by sulforhodamine B assay; conditions: RPMI-8226, 48 h
HCC 2998 = assay: Cytotoxicity against Homo sapiens (human) HCC2998 cells after 48 hr by sulforhodamine B assay; conditions: HCC 2998, 48 h
HCT-15 = assay: Cytotoxicity against Homo sapiens (human) HCT15 cells after 48 hr by sulforhodamine B assay; conditions: HCT-15, 48 h
SK-MEL-2 = assay: Cytotoxicity against Homo sapiens (human) SK-MEL-2 cells after 48 hr by sulforhodamine B assay; conditions: SK-MEL-2, 48 h
PC-3 = assay: Cytotoxicity against Homo sapiens (human) PC3 cells after 48 hr by sulforhodamine B assay; conditions: PC-3, 48 h
HOP-62 = assay: Cytotoxicity against Homo sapiens (human) HOP62 cells after 48 hr by sulforhodamine B assay; conditions: HOP-62, 48 h
NCI-H322M = assay: Cytotoxicity against Homo sapiens (human) NCI-H322M cells after 48 hr by sulforhodamine B assay
IGROV-1 = assay: Cytotoxicity against Homo sapiens (human) IGROV1 cells after 48 hr by sulforhodamine B assay; conditions: IGROV-1, 48 h
CCRF-CEM = assay: Cytotoxicity against Homo sapiens (human) CCRF-CEM cells after 48 hr by sulforhodamine B assay
SF-268 = assay: Cytotoxicity against Homo sapiens (human) SF268 cells assessed as cell growth at 10^-4 M after 48 hr by […] assay; conditions: SF-268, 48 h, read-out: Activity
UACC-62 = assay: Cytotoxicity against Homo sapiens (human) UACC62 cells after 48 hr by sulforhodamine B assay; conditions: UACC-62, 48 h
T47D = assay: Cytotoxicity against Homo sapiens (human) T47D cells after 48 hr by sulforhodamine B assay
EKVX = assay: Cytotoxicity against Homo sapiens (human) EKVX cells after 48 hr by sulforhodamine B assay
[1] = read-out: LC50 (the source's name)

`ClCc1cccc(Cn2cnc3nc(Cl)nc(Cl)c32)c1` gave a GI50 (SF-539) of 160 nM, an LC50 (concentration killing 50% of cells) (SF-539) of 1620 nM and a TGI (SF-539) of 460 nM. For the same compound, the GI50 (RXF 393) was 1340 nM, the TGI (RXF 393) was 2630 nM and the CC50 (RXF 393; [1]) was 5120 nM. For the same compound, the GI50 (SK-MEL-5) was 1200 nM, the LC50 (SK-MEL-5) was 4890 nM and the TGI (SK-MEL-5) was 2450 nM. It also gave a GI50 (DU-145) of 140 nM, an LC50 (DU-145) of 520 nM and a TGI (DU-145) of 260 nM. For the same compound, the GI50 (MOLT-4) was 1040 nM, the TGI (MOLT-4) was 2290 nM and the CC50 (MOLT-4; [1]) was 5010 nM. It also gave a GI50 (MDA-MB-231) of 460 nM, an LC50 (MDA-MB-231) of 4160 nM and a TGI (MDA-MB-231) of 1730 nM. For the same compound, the GI50 (OVCAR-4) was 1580 nM, the LC50 (concentration killing 50% of cells) (OVCAR-4) was 5370 nM and the TGI (OVCAR-4) was 2950 nM. For the same compound, the GI50 (UO-31) was 17400 nM, the LC50 (concentration causing 50% net cell kill) (UO-31) was 72400 nM and the TGI (UO-31) was 35500 nM. It also gave a GI50 (SW-620) of 410 nM, a TGI (SW-620) of 1650 nM and a CC50 (SW-620; [1]) of 4070 nM. The GI50 (A549) was 12000 nM, the TGI (A549) was 25700 nM and the CC50 (A549; [1]) was 55000 nM. For the same compound, the GI50 (HCT-116) was 750 nM, the TGI (HCT-116) was 1990 nM and the CC50 (HCT-116; [1]) was 4460 nM. For the same compound, the GI50 (A498) was 1510 nM, the LC50 (lethal concentration, 50% cell kill) (A498) was 5370 nM and the TGI (A498) was 2810 nM. The GI50 (ACHN) was 1120 nM, the TGI (ACHN) was 2340 nM and the CC50 (ACHN; [1]) was 4780 nM. For the same compound, the GI50 (KM12) was 16600 nM, the TGI (KM12) was 35500 nM and the CC50 (KM12; [1]) was 74100 nM. For the same compound, the GI50 (SF-295) was 1860 nM, the TGI (SF-295) was 3380 nM and the CC50 (SF-295; [1]) was 6300 nM. The GI50 (OVCAR-3) was 1510 nM, the LC50 (OVCAR-3) was 5370 nM and the TGI (OVCAR-3) was 2880 nM. The GI50 (LOX IMVI) was 230 nM, the TGI (LOX IMVI) was 790 nM and the GI50 (786-0) was 1580 nM. It also gave an LC50 (786-0) of 5370 nM, a TGI (786-0) of 2880 nM and a GI50 (RPMI-8226) of 1690 nM. For the same compound, the TGI (RPMI-8226) was 4160 nM, the CC50 (RPMI-8226; [1]) was > 100000 nM and the GI50 (HCC 2998) was 1900 nM. It also gave a TGI (HCC 2998) of 3310 nM, a CC50 (HCC 2998; [1]) of 5750 nM and a GI50 (HCT-15) of 950 nM. For the same compound, the TGI (HCT-15) was 2130 nM, the CC50 (HCT-15; [1]) was 4570 nM and the GI50 (SK-MEL-2) was 1770 nM. It also gave an LC50 (concentration killing 50% of cells) (SK-MEL-2) of 7760 nM, a TGI (SK-MEL-2) of 3710 nM and a GI50 (PC-3) of 1540 nM. It also gave an LC50 (concentration causing 50% cell kill) (PC-3) of 5370 nM, a TGI (PC-3) of 2880 nM and a GI50 (HOP-62) of 2180 nM. It also gave a TGI (HOP-62) of 3630 nM, a CC50 (HOP-62; [1]) of 6020 nM and a GI50 (NCI-H322M) of 14100 nM. The TGI (NCI-H322M) was 26900 nM, the CC50 (NCI-H322M; [1]) was 52500 nM and the GI50 (IGROV-1) was 17000 nM. The LC50 (IGROV-1) was 55000 nM, the TGI (IGROV-1) was 30900 nM and the GI50 (CCRF-CEM) was 1380 nM. It also gave a TGI (CCRF-CEM) of 2750 nM, a CC50 (CCRF-CEM; [1]) of 5490 nM and a growth at 100 µM (SF-268) of 0%. For the same compound, the GI50 (UACC-62) was 1020 nM, the LC50 (concentration causing 50% net cell kill) (UACC-62) was 4670 nM and the TGI (UACC-62) was 2180 nM. For the same compound, the GI50 (T47D) was 220 nM, the LC50 (T47D) was > 100000 nM and the TGI (T47D) was 610 nM. For the same compound, the GI50 (EKVX) was 930 nM, the TGI (EKVX) was 2130 nM and the CC50 (EKVX; [1]) was 4570 nM.
